# Assay results as given in patent US20260183275A1, “SUBSTITUTED QUINOLONE COMPOUNDS USEFUL AS INHIBITORS OF TLR9” (Bristol-Myers Squibb Company, priority 2022, published 2026).
# Experiments:
# Type in all cases: cell-based
# human TLR9 = target: T1, human TLR9 (Homo sapiens, UniProt Q9NR96); experiment: TLR9 inhibition reporter assay (HEK-Blue cells, SEAP reporter); conditions: HEK-Blue cells overexpressing human TLR9; stimulated with ODN2006 5 nM; SEAP read after 22 hour; dose range 0.05 nM-50 μM
# T1 construct: host or cells: HEK-Blue cells
# T1 sequence (Q9NR96 26-1032): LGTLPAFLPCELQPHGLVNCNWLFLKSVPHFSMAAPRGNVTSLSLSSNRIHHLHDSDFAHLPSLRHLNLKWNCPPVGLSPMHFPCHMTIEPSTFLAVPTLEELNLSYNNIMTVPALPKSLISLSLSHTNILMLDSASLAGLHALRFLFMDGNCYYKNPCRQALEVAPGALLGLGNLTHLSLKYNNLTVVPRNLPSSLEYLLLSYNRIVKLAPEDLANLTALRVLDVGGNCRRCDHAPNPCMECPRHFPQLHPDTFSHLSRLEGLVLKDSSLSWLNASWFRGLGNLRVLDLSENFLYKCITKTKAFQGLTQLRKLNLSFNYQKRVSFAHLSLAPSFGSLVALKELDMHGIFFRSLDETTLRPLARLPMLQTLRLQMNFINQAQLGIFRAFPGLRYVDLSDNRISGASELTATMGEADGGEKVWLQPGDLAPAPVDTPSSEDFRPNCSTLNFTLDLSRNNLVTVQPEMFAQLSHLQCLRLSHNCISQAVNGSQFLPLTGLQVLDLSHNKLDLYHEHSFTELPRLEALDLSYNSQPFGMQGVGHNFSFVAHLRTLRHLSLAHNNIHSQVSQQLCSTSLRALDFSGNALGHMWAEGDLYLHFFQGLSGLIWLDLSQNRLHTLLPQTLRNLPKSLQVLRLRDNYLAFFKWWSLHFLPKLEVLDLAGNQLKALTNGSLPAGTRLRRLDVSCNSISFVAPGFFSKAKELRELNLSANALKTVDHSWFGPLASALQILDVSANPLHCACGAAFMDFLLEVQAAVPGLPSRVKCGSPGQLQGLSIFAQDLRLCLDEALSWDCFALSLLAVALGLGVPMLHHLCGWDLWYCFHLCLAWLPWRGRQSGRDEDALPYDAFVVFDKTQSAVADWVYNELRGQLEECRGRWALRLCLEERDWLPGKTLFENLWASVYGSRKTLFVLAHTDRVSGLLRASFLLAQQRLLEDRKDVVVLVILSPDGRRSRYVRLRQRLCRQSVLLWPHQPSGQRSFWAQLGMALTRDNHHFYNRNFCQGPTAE
# Procedure, shortened: (§1)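 HEK-Blue cells with NF-κB/AP-1-driven SEAP pre-treated 30 min with compounds (0.05 nM-50 μM), then stimulated with gardiquimod 7.5 μM (TLR7), R848 15.9 μM (TLR8) or ODN2006 5 nM (TLR9). SEAP read after 22 h at 37° C; % inhibition relative to agonist+DMSO and reference-inhibitor wells.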
# human TLR8 = target: T2, human TLR8 (Homo sapiens, UniProt Q9NR97); experiment: TLR8 inhibition reporter assay (HEK-Blue cells, SEAP reporter); conditions: HEK-Blue cells overexpressing human TLR8; stimulated with R848 15.9 μM; SEAP read after 22 hour; dose range 0.05 nM-50 μM
# T2 construct: host or cells: HEK-Blue cells
# T2 sequence (Q9NR97 27-1041): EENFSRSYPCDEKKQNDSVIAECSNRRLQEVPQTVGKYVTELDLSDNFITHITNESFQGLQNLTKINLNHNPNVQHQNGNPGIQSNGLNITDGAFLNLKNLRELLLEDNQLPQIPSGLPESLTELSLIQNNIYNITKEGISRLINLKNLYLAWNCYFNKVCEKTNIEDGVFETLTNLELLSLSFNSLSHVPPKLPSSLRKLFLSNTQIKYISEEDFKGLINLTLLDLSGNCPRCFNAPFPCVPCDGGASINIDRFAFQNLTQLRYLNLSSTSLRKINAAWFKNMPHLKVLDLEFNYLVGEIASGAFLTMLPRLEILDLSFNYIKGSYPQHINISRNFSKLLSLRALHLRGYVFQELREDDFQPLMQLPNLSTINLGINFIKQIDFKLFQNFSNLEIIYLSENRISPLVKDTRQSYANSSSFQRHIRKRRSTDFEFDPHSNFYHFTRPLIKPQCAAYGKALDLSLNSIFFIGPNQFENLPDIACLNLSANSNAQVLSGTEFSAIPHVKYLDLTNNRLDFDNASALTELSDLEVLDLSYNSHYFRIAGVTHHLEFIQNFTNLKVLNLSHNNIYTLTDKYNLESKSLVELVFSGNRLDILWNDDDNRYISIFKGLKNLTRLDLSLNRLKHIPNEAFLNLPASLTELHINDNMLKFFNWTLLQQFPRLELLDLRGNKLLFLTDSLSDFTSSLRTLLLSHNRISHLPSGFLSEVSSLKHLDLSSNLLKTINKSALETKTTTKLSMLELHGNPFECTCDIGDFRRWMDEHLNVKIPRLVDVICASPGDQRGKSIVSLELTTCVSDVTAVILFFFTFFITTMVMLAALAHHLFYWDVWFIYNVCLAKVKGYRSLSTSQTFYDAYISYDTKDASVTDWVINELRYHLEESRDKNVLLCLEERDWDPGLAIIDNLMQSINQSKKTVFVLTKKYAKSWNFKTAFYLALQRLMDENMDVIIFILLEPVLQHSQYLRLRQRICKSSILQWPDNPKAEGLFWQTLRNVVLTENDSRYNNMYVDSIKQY
# Procedure, shortened: as §1
# human TLR7 = target: T3, human TLR7 (Homo sapiens, UniProt Q9NYK1); experiment: TLR7 inhibition reporter assay (HEK-Blue cells, SEAP reporter); conditions: HEK-Blue cells overexpressing human TLR7; stimulated with gardiquimod 7.5 μM; SEAP read after 22 hour; dose range 0.05 nM-50 μM
# T3 construct: host or cells: HEK-Blue cells
# T3 sequence (Q9NYK1 27-1049): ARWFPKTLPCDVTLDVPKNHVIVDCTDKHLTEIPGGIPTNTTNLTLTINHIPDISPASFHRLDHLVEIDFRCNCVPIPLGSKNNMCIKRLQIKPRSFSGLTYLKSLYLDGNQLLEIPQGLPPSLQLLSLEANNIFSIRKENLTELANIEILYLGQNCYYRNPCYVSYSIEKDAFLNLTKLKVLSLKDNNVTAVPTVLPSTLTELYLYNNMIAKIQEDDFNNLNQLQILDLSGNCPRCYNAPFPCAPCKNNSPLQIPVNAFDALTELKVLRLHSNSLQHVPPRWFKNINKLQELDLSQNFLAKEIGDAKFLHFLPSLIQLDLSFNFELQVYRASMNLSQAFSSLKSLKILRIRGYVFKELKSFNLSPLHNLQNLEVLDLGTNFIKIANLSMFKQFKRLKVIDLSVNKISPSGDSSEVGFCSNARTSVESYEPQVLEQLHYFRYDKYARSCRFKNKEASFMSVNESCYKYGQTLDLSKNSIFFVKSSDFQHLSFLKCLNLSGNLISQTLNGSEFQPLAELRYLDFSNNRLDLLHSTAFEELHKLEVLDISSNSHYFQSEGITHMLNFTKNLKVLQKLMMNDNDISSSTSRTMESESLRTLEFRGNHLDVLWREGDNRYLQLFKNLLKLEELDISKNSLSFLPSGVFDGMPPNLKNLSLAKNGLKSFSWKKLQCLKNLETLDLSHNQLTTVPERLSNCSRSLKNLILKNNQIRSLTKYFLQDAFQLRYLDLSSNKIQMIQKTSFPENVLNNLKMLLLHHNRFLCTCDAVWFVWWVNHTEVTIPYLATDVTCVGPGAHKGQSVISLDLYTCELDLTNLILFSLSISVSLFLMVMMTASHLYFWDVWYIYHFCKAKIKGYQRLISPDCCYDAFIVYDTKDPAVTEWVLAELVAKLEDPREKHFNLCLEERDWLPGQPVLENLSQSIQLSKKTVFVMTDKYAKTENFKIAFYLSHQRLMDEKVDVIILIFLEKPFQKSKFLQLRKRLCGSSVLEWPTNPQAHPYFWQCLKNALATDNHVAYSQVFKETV
# Procedure, shortened: as §1
Structure (SMILES),IC50 (human TLR9),IC50 (human TLR8),IC50 (human TLR7)
"CC(C)Cn1c(=O)c(-c2ccc(S(C)(=O)=O)cc2)cc2cc(-c3ccc(C4CCN(C(C)C)CC4)cc3)ccc21 [Example 85, 3-(4-methanesulfonylphenyl)-1-(2-methylpropyl)-6-{4-[1-(propan-2-yl)piperidin-4-yl]phenyl}-1,2-dihydroquinolin-2-one]",0.4 µM,26.3 µM,14.6 µM
"CCc1c(-c2ccc(S(C)(=O)=O)cc2)c(=O)n(C)c2ccc(-c3ccc(C4CCN(C(C)C)CC4)cc3)cc12 [Example 86, 4-ethyl-3-(4-methanesulfonylphenyl)-1-methyl-6-{4-[1-(propan-2-yl)piperidin-4-yl]phenyl}-1,2-dihydroquinolin-2-one]",0.406 µM,1.55 µM,10.4 µM
"Cn1c(=O)c(-c2ccc(S(C)(=O)=O)cc2)cc2cc(-c3ccc(C4CCN(C5COC5)CC4)cc3)ccc21 [Example 87, 3-(4-methanesulfonylphenyl)-1-methyl-6-{4-[1-(oxetan-3-yl)piperidin-4-yl]phenyl}-1,2-dihydroquinolin-2-one]",0.416 µM,30 µM,≥ 50 µM
"CC(C)N1CCC(c2ccc(-c3ccc4c(c3)cc(-c3ccc(S(C)(=O)=O)cc3)c(=O)n4CC(C)(C)O)cc2)CC1 [Example 89, 1-(2-hydroxy-2-methylpropyl)-3-(4-methanesulfonylphenyl)-6-{4-[1-(propan-2-yl)piperidin-4-yl]phenyl}-1,2-dihydroquinolin-2-one]",0.465 µM,10.9 µM,4.96 µM
"CC(C)N1CCN(c2ccc(Nc3ccc4[nH]c(=O)c(-c5ccc(S(C)(=O)=O)cc5)cc4c3)cc2)CC1 [Example 90, 3-(4-methanesulfonylphenyl)-6-({4-[4-(propan-2-yl)piperazin-1-yl]phenyl}amino)-1,2-dihydroquinolin-2-one]",0.493 µM,≥ 50 µM,3.09 µM
"O=c1[nH]c2ccc(-c3ccc(C4CCN(C5COC5)CC4)cc3)cc2cc1-c1ccc(OC(F)F)cc1 [Example 91, 3-[4-(difluoromethoxy)phenyl]-6-{4-[1-(oxetan-3-yl)piperidin-4-yl]phenyl}-1,2-dihydroquinolin-2-one]",0.512 µM,≥ 50 µM,≥ 50 µM
"NS(=O)(=O)c1ccc(-c2cc3cc(-c4ccc(C5CCN(C6COC6)CC5)cc4)ccc3[nH]c2=O)cc1 [Example 92, 4-(6-{4-[1-(oxetan-3-yl)piperidin-4-yl]phenyl}-2-oxo-1,2-dihydroquinolin-3-yl)benzene-1-sulfonamide]",0.56 µM,11.4 µM,≥ 50 µM
"CC(C)N1CCC(c2ccc(-c3ccc4[nH]c(=O)c(-c5ccc6nccnc6c5)cc4c3)cc2)CC1 [Example 93, 6-{4-[1-(propan-2-yl)piperidin-4-yl]phenyl}-3-(quinoxalin-6yl)-1,2-dihydroquinolin-2-one]",0.651 µM,49.8 µM,1.87 µM
"O=c1[nH]c2ccc(-c3ccc(C4CCN(C5COC5)CC4)cc3)cc2cc1-c1ccc2nccnc2c1 [Example 94, 6-{4-[1-(oxetan-3-yl)piperidin-4-yl]phenyl}-3-(quinoxalin-6-yl)-1,2-dihydroquinolin-2-one]",0.689 µM,≥ 50 µM,≥ 50 µM
"CCc1c(-c2ccc(OC)c(OC)c2)c(=O)[nH]c2ccc(-c3ccc(N4CCN(C(C)C)CC4)cc3)cc12 [Example 95, 3-(3,4-dimethoxyphenyl)-4-ethyl-6-{4-[4-(propan-2-yl)piperazin-1-yl]phenyl}-1,2-dihydroquinolin-2-one]",0.691 µM,0.731 µM,5.89 µM
"CC(C)N1CCC(c2ccc(-c3ccc4c(c3)cc(-c3ccc(N(C)C)cc3)c(=O)n4C)cc2)CC1 [Example 96, 3-[4-(dimethylamino)phenyl]-1-methyl-6-{4-[1-(propan-2-yl)piperidin-4-yl]phenyl}-1,2-dihydroquinolin-2-one]",1.43 µM,≥ 50 µM,17.3 µM
"CN1CCC(c2ccc3[nH]c(=O)c(-c4ccc(S(C)(=O)=O)cc4)cc3c2)CC1 [Example 97, 3-(4-methanesulfonylphenyl)-6-(1-methylpiperidin-4-yl)-1,2-dihydroquinolin-2-one]",0.96 µM,20.1 µM,2.51 µM
"CS(=O)(=O)Nc1cccc(-c2cc3cc(-c4ccc(C5CCN(C6COC6)CC5)cc4)ccc3[nH]c2=O)c1 [Example 98, N-[3-(6-{4-[1-(oxetan-3-yl)piperidin-4-yl]phenyl}-2-oxo-1,2-dihydroquinolin-3-yl)phenyl]methanesulfonamide]",1.43 µM,26.7 µM,≥ 50 µM
"N#Cc1cccc(-c2cc3cc(-c4ccc(C5CCN(C6COC6)CC5)cc4)ccc3[nH]c2=O)c1 [Example 99, 3-(6-{4-[1-(oxetan-3-yl)piperidin-4-yl]phenyl}-2-oxo-1,2-dihydroquinolin-3-yl) benzonitrile]",1.65 µM,≥ 50 µM,16.7 µM
